Measurements taken from patent US20230048132A1, “CYCLIN-DEPENDENT KINASE INHIBITORS” (SPV THERAPEUTICS INC., priority 2018, published 2023).

Columns and labels:
[1] = system: BXF 5637; experiment: 2D cell proliferation assay (CellTiter-Blue); assay type: cell-based; details: 72 h, three days of treatment, read-out: abs. IC50
Method in brief: (§1)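 Cells were seeded at 4,000-60,000 per well, allowed 24 h to recover, then exposed in duplicate to five full-log concentrations up to 100 μM for three days at 37° C, 5% CO2. Viability was read by CellTiter-Blue fluorescence (ex 570 nm, em 600 nm) as T/C% versus untreated controls; IC50 from 4-parameter fit.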

[2] = system: CEXF HeLa; experiment: 2D cell proliferation assay (CellTiter-Blue); assay type: cell-based; details: Homo sapiens, 72 h, three days of treatment, read-out: abs. IC50
Method in brief: as §1

[3] = system: CNXF U-87 MG; experiment: 2D cell proliferation assay (CellTiter-Blue); assay type: cell-based; details: Homo sapiens, 72 h, three days of treatment, read-out: abs. IC50
Method in brief: as §1

[4] = system: CXF COLO 205; experiment: 2D cell proliferation assay (CellTiter-Blue); assay type: cell-based; details: Homo sapiens, 72 h, three days of treatment, read-out: abs. IC50
Method in brief: as §1

[5] = system: CXF Caco-2; experiment: 2D cell proliferation assay (CellTiter-Blue); assay type: cell-based; details: Homo sapiens, 72 h, three days of treatment, read-out: abs. IC50
Method in brief: as §1

[6] = system: CXF HT-29; experiment: 2D cell proliferation assay (CellTiter-Blue); assay type: cell-based; details: Homo sapiens, 72 h, three days of treatment, read-out: abs. IC50
Method in brief: as §1

[7] = system: LEXFAM MV4-11; experiment: 2D cell proliferation assay (CellTiter-Blue); assay type: cell-based; details: Homo sapiens, 72 h, three days of treatment, read-out: abs. IC50
Method in brief: as §1

[8] = system: LIXAH HLE; experiment: 2D cell proliferation assay (CellTiter-Blue); assay type: cell-based; details: 72 h, three days of treatment, read-out: abs. IC50
Method in brief: as §1

[9] = system: LIXFH HEP-3B; experiment: 2D cell proliferation assay (CellTiter-Blue); assay type: cell-based; details: Homo sapiens, Hep3B, 72 h, three days of treatment, read-out: abs. IC50
Method in brief: as §1

[10] = system: LXFA A549; experiment: 2D cell proliferation assay (CellTiter-Blue); assay type: cell-based; details: Homo sapiens, 72 h, three days of treatment, read-out: abs. IC50
Method in brief: as §1

[11] = system: LXFA NCl-H1975; experiment: 2D cell proliferation assay (CellTiter-Blue); assay type: cell-based; details: 72 h, three days of treatment, read-out: abs. IC50
Method in brief: as §1

[12] = system: LXFE Calu-1; experiment: 2D cell proliferation assay (CellTiter-Blue); assay type: cell-based; details: Homo sapiens, 72 h, three days of treatment, read-out: abs. IC50
Method in brief: as §1

[13] = system: LXFL NCl-H1299; experiment: 2D cell proliferation assay (CellTiter-Blue); assay type: cell-based; details: 72 h, three days of treatment, read-out: abs. IC50
Method in brief: as §1

[14] = system: LYXFNH Daudi; experiment: 2D cell proliferation assay (CellTiter-Blue); assay type: cell-based; details: Homo sapiens, 72 h, three days of treatment, read-out: abs. IC50
Method in brief: as §1

[15] = system: MAXFHER BT-474; experiment: 2D cell proliferation assay (CellTiter-Blue); assay type: cell-based; details: Homo sapiens, 72 h, three days of treatment, read-out: abs. IC50
Method in brief: as §1

[16] = system: MAXFLB T47D (ER+); experiment: 2D cell proliferation assay (CellTiter-Blue); assay type: cell-based; details: Homo sapiens, 72 h, three days of treatment, read-out: abs. IC50
Method in brief: as §1

[17] = system: MAXFTN BT-549; experiment: 2D cell proliferation assay (CellTiter-Blue); assay type: cell-based; details: Homo sapiens, 72 h, three days of treatment, read-out: abs. IC50
Method in brief: as §1

[18] = system: MAXFTN MDA-MB-453; experiment: 2D cell proliferation assay (CellTiter-Blue); assay type: cell-based; details: Homo sapiens, 72 h, three days of treatment, read-out: abs. IC50
Method in brief: as §1

[19] = system: MAXFTN ZR-75-1 (ER+); experiment: 2D cell proliferation assay (CellTiter-Blue); assay type: cell-based; details: Homo sapiens, 72 h, three days of treatment, read-out: abs. IC50
Method in brief: as §1

[20] = system: MEXF A-375; experiment: 2D cell proliferation assay (CellTiter-Blue); assay type: cell-based; details: Homo sapiens, 72 h, three days of treatment, read-out: abs. IC50
Method in brief: as §1

[21] = system: MEXF M14; experiment: 2D cell proliferation assay (CellTiter-Blue); assay type: cell-based; details: 72 h, three days of treatment, read-out: abs. IC50
Method in brief: as §1

[22] = system: MEXF MDA-MB-435; experiment: 2D cell proliferation assay (CellTiter-Blue); assay type: cell-based; details: Homo sapiens, 72 h, three days of treatment, read-out: abs. IC50
Method in brief: as §1

[23] = system: MMXF U-266; experiment: 2D cell proliferation assay (CellTiter-Blue); assay type: cell-based; details: Homo sapiens, 72 h, three days of treatment, read-out: abs. IC50
Method in brief: as §1

[24] = system: PAXF MIA-Pa-Ca-2; experiment: 2D cell proliferation assay (CellTiter-Blue); assay type: cell-based; details: Homo sapiens, MIA PaCa-2, 72 h, three days of treatment, read-out: abs. IC50
Method in brief: as §1

[25] = system: PRXF 22Rv1; experiment: 2D cell proliferation assay (CellTiter-Blue); assay type: cell-based; details: Homo sapiens, 72 h, three days of treatment, read-out: abs. IC50
Method in brief: as §1

[26] = system: PRXF LNCaP; experiment: 2D cell proliferation assay (CellTiter-Blue); assay type: cell-based; details: Homo sapiens, 72 h, three days of treatment, read-out: abs. IC50
Method in brief: as §1

[27] = system: PRXF VCap; experiment: 2D cell proliferation assay (CellTiter-Blue); assay type: cell-based; details: Homo sapiens, 72 h, three days of treatment, read-out: abs. IC50
Method in brief: as §1

[28] = system: UXF EFE-184; experiment: 2D cell proliferation assay (CellTiter-Blue); assay type: cell-based; details: Homo sapiens, 72 h, three days of treatment, read-out: abs. IC50
Method in brief: as §1

[29] = system: UXF MFE-319; experiment: 2D cell proliferation assay (CellTiter-Blue); assay type: cell-based; details: 72 h, three days of treatment, read-out: abs. IC50
Method in brief: as §1

[30] = Pharmacokinetics after IV bolus; assay type: in vivo; details: rat, plasma; rats; IV bolus 30 mg/kg; N = 3
Procedure: (§2) Nonclinical pharmacokinetic (PK) parameters of lead CDK4/6/9 inhibitors were determined in an intravenous (IV) and oral study (p.o.) conducted in rats. Lead compounds were each administered as a single oral dose at 100 mg/kg or by IV bolus via the caudal vein at the dose of 30 mg/kg. Blood samples were collected at 0.25, 0.5, 1, 2, 4, 8, 12, and 24 hours post i.v. administration, and at 1, 2, 4, 8, 24 and 48 hours post oral administration. Plasma was processed for drug concentration analysis using a validated LCMS/MS method, and PK parameters were calculated by using WinNonlin.

[31] = Pharmacokinetics after oral administration; assay type: in vivo; details: rat, plasma, rats
Procedure: as §2

[32] = oral administration 100 mg/kg, N = 3

IC50 [2] [µM]	IC50 [3] [µM]	IC50 [4] [µM]	IC50 [5] [µM]	IC50 [6] [µM]	IC50 [7] [µM]	IC50 [9] [µM]	IC50 [10] [µM]	IC50 [11] [µM]	IC50 [12] [µM]	IC50 [13] [µM]	IC50 [15] [µM]	IC50 [16] [µM]	IC50 [17] [µM]	IC50 [18] [µM]	IC50 [20] [µM]	Structure (SMILES)	IC50 [1] [µM]	IC50 [8] [µM]	IC50 [19] [µM]	IC50 [21] [µM]	further results
1.57	10.8	0.577	23	8.98	≤ 0.01	3.67	3.41	0.356	5.96	8.9	5.55	1.63	2.31	0.327	0.263	O=C1NCC[C@@]12Cc1cnc(Nc3ccc(N4CCNCC4)cc3F)nc1N(C1CCCC1)C2=O [Example D146, (S)-8-cyclopentyl-2-((2-fluoro-4-(piperazin-1-yl)phenyl)amino)-5,8-dihydro-7H-spiro[pyrido[2,3-d]pyrimidine-6,3′-pyrrolidine]-2′,7-dione]	1.49	0.928	9.03	1.58	IC50 [14]: 0.162 µM; IC50 [22]: 0.875 µM; IC50 [23]: 4.55 µM; IC50 [24]: 6.3 µM; IC50 [25]: 0.138 µM; IC50 [26]: 0.349 µM; IC50 [27]: 1.26 µM; IC50 [28]: 2.08 µM; IC50 [29]: 1.14 µM
72.6	≥ 100	4.76	≥ 100	29.9	≤ 0.01	78.9	79.2	26.3	48.7	37.3	81.1	97.4	19.6	7.68	0.254	CC(C)N1CCN(c2ccc(Nc3ncc4c(n3)N(C3CCCC3)C(=O)[C@]3(CCNC3=O)C4)nc2)CC1 [Example D154, (S)-8-cyclopentyl-2-((5-(4-isopropylpiperazin-1-yl)pyridin-2-yl)amino)-5,8-dihydro-7H-spiro[pyrido[2,3-d]pyrimidine-6,3′-pyrrolidine]-2′,7-dione]	17.6	21.5	≥ 100	21.4	IC50 [22]: 16 µM; IC50 [23]: 78.5 µM; IC50 [24]: 73.9 µM; IC50 [25]: 1.42 µM; IC50 [26]: 31.1 µM; IC50 [27]: 25.4 µM; IC50 [28]: 34.6 µM; IC50 [29]: 5.43 µM
36.9	75.5	6.22	≥ 100	31.8	≤ 0.01	67.8	69.9	16.6	78.6	30.1	67.9	46.2	16.6	2	0.769	CN(C)[C@H]1CCN(c2ccc(Nc3ncc4c(n3)N(C3CCCC3)C(=O)[C@]3(CCNC3=O)C4)nc2)C1 [Example D178, (S)-8-cyclopentyl-2-((5-((S)-3-(dimethylamino)pyrrolidin-1-yl)pyridin-2-yl)amino)-5,8-dihydro-7H-spiro[pyrido[2,3-d]pyrimidine-6,3′-pyrrolidine]-2′,7-dione]	34.3	21.3	88.2	24.6	IC50 [22]: 18.3 µM; IC50 [23]: 62.3 µM; IC50 [24]: 65.9 µM; IC50 [25]: 0.447 µM; IC50 [26]: 20.8 µM; IC50 [27]: 21.1 µM; IC50 [28]: 22.6 µM; IC50 [29]: 11.3 µM
0.268	≥ 100	0.101	≥ 100	0.562	≤ 0.01	0.171	3.31	0.029	1.25	0.353	0.125	0.829	0.252	0.057	0.061	CN(C)CCOc1ccc(Nc2ncc3c(n2)N(C2CCCC2)C(=O)[C@]2(CCNC2=O)C3)cc1 [Example D179, (S)-8-cyclopentyl-2-((4-(2-(dimethylamino)ethoxy)phenyl)amino)-5,8-dihydro-7H-spiro[pyrido[2,3-d]pyrimidine-6,3′-pyrrolidine]-2′,7-dione]	0.143	0.103	0.409	0.268	IC50 [22]: 0.102 µM; IC50 [23]: 0.814 µM; IC50 [24]: 0.163 µM; IC50 [25]: 0.021 µM; IC50 [26]: 0.024 µM; IC50 [27]: 0.037 µM; IC50 [28]: 0.244 µM; IC50 [29]: 0.144 µM; Cmax [30]: 6200 ng/mL; clearance [30]: 38.3 mL/min/kg; half-life [30]: 2.26 h; bioavailability ([31]; oral 100 mg/kg versus IV 30 mg/kg, read-out: BIOAVAILABILITY F): 36.3%; AUC [31, 32]: 14200 ng·h/mL; Cmax [31, 32]: 3360 ng/mL; MRT [31, 32]: 2.99 h; half-life [31, 32]: 3.1 h
